# From the supplement of paper PMC11208160
# Test: recombinant UMI read abundance after kanamycin selection (control-corrected) (log10(CPM+1)); higher = more efficient recombination; extreme values may be limits of the assay; sequences stand for … in AGTGCAGAGAAAATCGGCCAGTTTTCTCTGCCTGCAGTCCGCATGCCGTGGGACCCCTTGGGTTCTAACCTGTTGCCTAGATTTATGCAGCGGACTGCCTTTCTCCCAAAGTGATAAACCGG…AGGTTGGTTTCACT; site = the 11-nt donor
# Summary of the method: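 In a pooled Escherichia coli screen for the IS621 bridge recombinase, donor and donor-binding-loop pairs were each placed with a 12-nt UMI on a plasmid bearing a promoterless kanamycin gene. This library was co-electroporated with a target plasmid encoding a fixed target and T7-inducible recombinase, and cells were plated either on IPTG (0.07 mM) plus kanamycin or without selection, in two replicates each. Recombinant UMIs were PCR-amplified across the donor–target junction and sequenced, and counts were converted to CPM, averaged over replicates, scaled by control-derived factors and reported as log10(CPM+1).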
row,Sequence,recombinant UMI read abundance (log10)
1,TCTGAAGCATGGACCGGTTTTCCCGGTAATCCGTATTTGGT (site TCTGAAGCTAC),0.00288
2,TCTGAATCATGGACCGGTTTTCCCGGTAATCCGTATTTGAC (site TCTGAATCTGT),0
3,TCTGCGGCATGGACCGGTTTTCCCGGTAATCCGTATTTGAT (site TCTGCGGCTAT),0.0332
4,TCTGCGGCATGGACCGGTTTTCCCGGTAATCCGTATTTGTT (site TCTGCGGCTAA),0.0132
5,TCTGTTCCATGGACCGGTTTTCCCGGTAATCCGTATTTGAG (site TCTGTTCCTCT),0.0103
6,TCTTAAACATGGACCGGTTTTCCCGGTAATCCGTATTTGCA (site TCTTAAACTTG),0
7,TCTTACACATGGACCGGTTTTCCCGGTAATCCGTATTTGCC (site TCTTACACTGG),0.565
8,TCTTCAGCATGGACCGGTTTTCCCGGTAATCCGTATTTGTG (site TCTTCAGCTCA),0.0132
9,TCTTCATCATGGACCGGTTTTCCCGGTAATCCGTATTTGTA (site TCTTCATCTTA),0.00251
10,TCTTTCTCATGGACCGGTTTTCCCGGTAATCCGTATTTGCT (site TCTTTCTCTAG),0
11,TGAAAATCATGGACCGGTTTTCCCGGTAATCCGTATTTGTG (site TGAAAATCTCA),1
12,TGAAGGACATGGACCGGTTTTCCCGGTAATCCGTATTTGAC (site TGAAGGACTGT),2.4
13,TGAATAACATGGACCGGTTTTCCCGGTAATCCGTATTTGCA (site TGAATAACTTG),1.38
14,TGACCGACATGGACCGGTTTTCCCGGTAATCCGTATTTGAT (site TGACCGACTAT),0.561
15,TGAGAGACATGGACCGGTTTTCCCGGTAATCCGTATTTGCG (site TAAGAGACTCG),2.07
16,TGAGAGACATGGACCGGTTTTCCCGGTAATCCGTATTTGCG (site TCAGAGACTCG),0.426
17,TGAGAGACATGGACCGGTTTTCCCGGTAATCCGTATTTGCG (site TGAGAGACTCG),2.22
18,TGAGAGACATGGACCGGTTTTCCCGGTAATCCGTATTTGCG (site TTAGAGACTCG),1.19
19,TGAGGTGCATGGACCGGTTTTCCCGGTAATCCGTATTTGGT (site TGAGGTGCTAC),0.98
20,TGAGGTTCATGGACCGGTTTTCCCGGTAATCCGTATTTGAC (site TGAGGTTCTGT),2.17
21,TGAGTCGCATGGACCGGTTTTCCCGGTAATCCGTATTTGTG (site TGAGTCGCTCA),0.474
22,TGATAATCATGGACCGGTTTTCCCGGTAATCCGTATTTGCT (site CGATCATCTAG),0
23,TGATAATCATGGACCGGTTTTCCCGGTAATCCGTATTTGCT (site TGATAATCTAG),2.45
24,TGATTCCCATGGACCGGTTTTCCCGGTAATCCGTATTTGAC (site TGATTCCCTGT),0.794
25,TGCAAGGCATGGACCGGTTTTCCCGGTAATCCGTATTTGGT (site TGCAAGGCTAC),0.43

row,Sequence,recombinant UMI read abundance (log10)
1,TGCAAGGCATGGACCGGTTTTCCCGGTAATCCGTATTTGGT (site TGCCAGGCTAC),0.0164
2,TGCAAGGCATGGACCGGTTTTCCCGGTAATCCGTATTTGGT (site TGCGAGGCTAC),0.0243
3,TGCAAGGCATGGACCGGTTTTCCCGGTAATCCGTATTTGGT (site TGCTAGGCTAC),0.0166
4,TGCAATCCATGGACCGGTTTTCCCGGTAATCCGTATTTGTT (site CGGAATCCTAA),0.0106
5,TGCAATCCATGGACCGGTTTTCCCGGTAATCCGTATTTGTT (site TGCAATCCTAA),0.672
6,TGCAATTCATGGACCGGTTTTCCCGGTAATCCGTATTTGCC (site TACAATTCTGG),0
7,TGCAATTCATGGACCGGTTTTCCCGGTAATCCGTATTTGCC (site TCCAATTCTGG),0
8,TGCAATTCATGGACCGGTTTTCCCGGTAATCCGTATTTGCC (site TGCAATTCTGG),0.00516
9,TGCAATTCATGGACCGGTTTTCCCGGTAATCCGTATTTGCC (site TTCAATTCTGG),0
10,TGCACGACATGGACCGGTTTTCCCGGTAATCCGTATTTGCC (site TGCACGACTGG),1.52
11,TGCACGTCATGGACCGGTTTTCCCGGTAATCCGTATTTGTC (site TGCACGTCTGA),1.26
12,TGCACTGCATGGACCGGTTTTCCCGGTAATCCGTATTTGCA (site TGCACTGCTTG),0.198
13,TGCCACGCATGGACCGGTTTTCCCGGTAATCCGTATTTGTC (site TGCCACGCTGA),2.07
14,TGCCAGGCATGGACCGGTTTTCCCGGTAATCCGTATTTGGT (site TGCAAGGCTAC),0.016
15,TGCCAGGCATGGACCGGTTTTCCCGGTAATCCGTATTTGGT (site TGCCAGGCTAC),0.00408
16,TGCCAGGCATGGACCGGTTTTCCCGGTAATCCGTATTTGGT (site TGCGAGGCTAC),0.0315
17,TGCCAGGCATGGACCGGTTTTCCCGGTAATCCGTATTTGGT (site TGCTAGGCTAC),0.0336
18,TGCCATGCATGGACCGGTTTTCCCGGTAATCCGTATTTGGA (site TGCCATGCTTC),0.294
19,TGCCGAACATGGACCGGTTTTCCCGGTAATCCGTATTTGAT (site TGCCGAACTAT),1.59
20,TGCCGACCATGGACCGGTTTTCCCGGTAATCCGTATTTGTT (site TGCCGACCTAA),0.0263
21,TGCCGTTCATGGACCGGTTTTCCCGGTAATCCGTATTTGAG (site TGCCGTTCTCT),0.00558
22,TGCCTAACATGGACCGGTTTTCCCGGTAATCCGTATTTGAA (site TGCCTAACTTT),0.0425
23,TGCCTAGCATGGACCGGTTTTCCCGGTAATCCGTATTTGTT (site AGCCTAGCTAA),0.014
24,TGCCTAGCATGGACCGGTTTTCCCGGTAATCCGTATTTGTT (site CGCCTAGCTAA),0.0169
25,TGCCTAGCATGGACCGGTTTTCCCGGTAATCCGTATTTGTT (site GGCCTAGCTAA),0.0245

row,Sequence,recombinant UMI read abundance (log10)
1,TGCCTAGCATGGACCGGTTTTCCCGGTAATCCGTATTTGTT (site TGCCTAGCTAA),0.0135
2,TGCCTCTCATGGACCGGTTTTCCCGGTAATCCGTATTTGCG (site TGCCTCTCTCG),0.00512
3,TGCGAGGCATGGACCGGTTTTCCCGGTAATCCGTATTTGGT (site TGCAAGGCTAC),0.35
4,TGCGAGGCATGGACCGGTTTTCCCGGTAATCCGTATTTGGT (site TGCCAGGCTAC),0.0134
5,TGCGAGGCATGGACCGGTTTTCCCGGTAATCCGTATTTGGT (site TGCGAGGCTAC),0.0084
6,TGCGAGGCATGGACCGGTTTTCCCGGTAATCCGTATTTGGT (site TGCTAGGCTAC),0.242
7,TGCGGAACATGGACCGGTTTTCCCGGTAATCCGTATTTGCG (site TGCGGAACTCG),0.885
8,TGCGGCACATGGACCGGTTTTCCCGGTAATCCGTATTTGCC (site TGCGGCACTGG),1.44
9,TGCGGCACATGGACCGGTTTTCCCGGTAATCCGTATTTGGA (site TGCGGCACTTC),0.0197
10,TGCGGGCCATGGACCGGTTTTCCCGGTAATCCGTATTTGCT (site TGCGGGCCTAG),0
11,TGCGGTTCATGGACCGGTTTTCCCGGTAATCCGTATTTGAA (site TGCGGTTCTTT),0.557
12,TGCTACGCATGGACCGGTTTTCCCGGTAATCCGTATTTGGT (site TGCTAAGCTAC),0.00535
13,TGCTACGCATGGACCGGTTTTCCCGGTAATCCGTATTTGGT (site TGCTACGCTAC),0.202
14,TGCTACGCATGGACCGGTTTTCCCGGTAATCCGTATTTGGT (site TGCTAGGCTAC),0
15,TGCTACGCATGGACCGGTTTTCCCGGTAATCCGTATTTGGT (site TGCTATGCTAC),0.00567
16,TGCTAGCCATGGACCGGTTTTCCCGGTAATCCGTATTTGGT (site TGCTAGACTAC),0.00818
17,TGCTAGCCATGGACCGGTTTTCCCGGTAATCCGTATTTGGT (site TGCTAGCCTAC),0.0034
18,TGCTAGCCATGGACCGGTTTTCCCGGTAATCCGTATTTGGT (site TGCTAGGCTAC),0.0165
19,TGCTAGCCATGGACCGGTTTTCCCGGTAATCCGTATTTGGT (site TGCTAGTCTAC),0.00984
20,TGCTAGGCATGGACCGGTTTTCCCGGTAATCCGTATTTGCT (site TGCTAGGCTAA),0.0205
21,TGCTAGGCATGGACCGGTTTTCCCGGTAATCCGTATTTGCT (site TGCTAGGCTAC),0.0125
22,TGCTAGGCATGGACCGGTTTTCCCGGTAATCCGTATTTGCT (site TGCTAGGCTAG),0.521
23,TGCTAGGCATGGACCGGTTTTCCCGGTAATCCGTATTTGCT (site TGCTAGGCTAT),0.00772
24,TGCTAGGCATGGACCGGTTTTCCCGGTAATCCGTATTTGGA (site TGCTAGGCTAC),0.138
25,TGCTAGGCATGGACCGGTTTTCCCGGTAATCCGTATTTGGA (site TGCTAGGCTCC),0.0137
